According to PMC2939254 (Neuroscience, 2010):
Read-outs that look alike come from different tables or passages of the source.

Legend:
[1] = system: NR1a/NR2A NMDAR expressed in HEK293 cells; assay type: cell-based, rat; settings: pH 7.35
[2] = system: NR1a/NR2B NMDAR expressed in HEK293 cells; assay type: cell-based, rat; settings: pH 7.35
[3] = system: NR1b/NR2A NMDAR expressed in HEK293 cells; assay type: cell-based, rat; settings: pH 7.35
[4] = system: NR1b/NR2B NMDAR expressed in HEK293 cells; assay type: cell-based, rat; settings: pH 7.35
[5] = system: NR1a/NR2A NMDAR expressed in HEK293 cells; settings: cited from earlier work
[6] = system: NR1a/NR2B NMDAR expressed in HEK293 cells; settings: cited from earlier work
[7] = system: NR1b/NR2A NMDAR expressed in HEK293 cells; settings: cited from earlier work
[8] = system: NR1b/NR2B NMDAR expressed in HEK293 cells; settings: cited from earlier work
NR2B-containing NMDAR = assay type: cell-based, rat
[9] = system: NR2A-containing NMDAR complexes; assay type: cell-based, rat

Row | Substance | % maximal inhibition, 1a/2A [1] [%] | % maximal inhibition, 1a/2B [2] [%] | % maximal inhibition, 1b/2A [3] [%] | % maximal inhibition, 1b/2B [4] [%] | % maximal inhibition, 1a/2A [5] [%] | % maximal inhibition, 1a/2B [6] [%] | % maximal inhibition, 1b/2A [7] [%] | % maximal inhibition, 1b/2B [8] [%] | maximal inhibition of NR2B-containing NMDAR (NR2B-containing NMDAR) [%] | inhibition of NR2A-containing NMDAR complexes [9]
1 | GEγγYQγMLγNLRγAEVKKNA(NH2) [con-T[K7γ]] | 78 ± 4 | 86 ± 5 | 82 ± 6 | 90 ± 2 |  |  |  |  |  | 
2 | GEγγLQKNQγLIRγKSN(NH2) [con-G[γ7K]] | 0 | 82 ± 5 | 0 | 94 ±2 |  |  |  |  |  | 
3 | GEγγVQKMQAγLARγNI(NH2) [con-R′ [A6Q/A9Q]] | 0 | 70 ± 6 | 25 ± 5 | 79 ± 5 |  |  |  |  |  | 
4 | GEγγVAKMA AγLARγNI(NH2) [con-R′ [ΔA10]] | 0 | 55 ± 6 | 0 | 65 ± 5 |  |  |  |  |  | 
5 | GEγγVAKNAAγLARγNI(NH2) [con-R′ [M8N]] | 45 ± 6 | 53 ± 5 | 60 ± 7 | 66 ± 5 |  |  |  |  |  | 
6 | GEγγLAKNA AγLARγNI(NH2) [con-R′ [V5L/ΔA10]] | 0 | 69 ± 4 | 0 | 71 ± 3 |  |  |  |  |  | 
7 | GEγγLQANQγLIRγKSN(NH2) [con-G[γ7A]] | 0 | 90 ± 4 | 0 | 95 ± 3 |  |  |  |  |  | 
8 | GEγγYQKALAγNLRγAEVKKNA(NH2) [con-T[M8A/+A10]] | 0 | 63 ± 4 | 0 | 67 ± 5 |  |  |  |  |  | 
9 | GEγγVAAMAAγLARγNI(NH2) [con-R′ [K7A]] | 93 ± 3 | 91 ± 3 | 93 ± 4 | 95 ± 2 |  |  |  |  |  | 
10 | GEγγYQKNLγNLRγAEVKKNA(NH2) [con-T[M8N]] |  |  |  |  | 48 ± 6 | 82 ± 5 | 56 ± 7 | 90 ± 4 |  | 
11 | GEγγYQKMAγNLRγAEVKKNA(NH2) [con-T[L9A]] | 93 ± 2 | 92 ± 5 | 91 ± 3 | 95 ± 2 |  |  |  |  |  | 
12 | GEγγVQKMAAγLARγNI(NH2) [con-R′ [A6Q]] | 50 ± 7 | 84 ± 5 | 72 ± 6 | 90 ± 4 |  |  |  |  |  | 
13 | GEγγYQKALγNLRγAEVKKNA(NH2) [con-T[M8A]] |  |  |  |  | 0 | 73 ± 8 | 0 | 81 ± 5 |  | 
14 | GEγγVAKAAAγLARγNI(NH2) [con-R′ [M8A]] | 0 | 85 ± 3 | 0 | 88 ± 4 |  |  |  |  |  | 
15 | GEγγYAKNA AγLARγNI(NH2) [con-R′ [V5Y/ΔA10]] | 82 ± 6 | 87 ± 5 | 84 ± 4 | 90 ± 3 |  |  |  |  |  | 
16 | GEγγLQKMLγNLRγAEVKKNA(NH2) [con-T[Y5L]] | 80 ± 6 | 85 ± 3 | 86 ± 7 | 90 ± 6 |  |  |  |  |  | 
17 | GEγγYQKGLγNLRγAEVKKNA(NH2) [con-T[M8G]] | 0 | 80 ± 5 | 0 | 84 ± 4 |  |  |  |  |  | 
18 | GEγγYQAMLγNLRγAEVKKNA(NH2) [con-T[K7A]] | 93 ± 2 | 85 ± 5 | 91 ± 3 | 94 ± 2 |  |  |  |  |  | 
19 | GEγγLQγNQγNLRγAEVKKNA(NH2) [con-G/T] | 0 | 80 ± 5 | 0 | 86 ± 4 |  |  |  |  | > 80 | no inhibition
